# pIC50: −log10 of the molar value.
# Tests used:
# [1] = target: Focal adhesion kinase 1 (Homo sapiens, UniProt Q05397); assay: Selectivity interaction (KinomeScan (DiscoverX)) EUB0001049a PTK2; details: at 1 µM
# [2] = target: SRSF protein kinase 2 (Homo sapiens) (UniProt P78362); assay: Selectivity interaction (KinomeScan (DiscoverX)) EUB0000666a SRPK2; details: at 10 µM
# [3] = target: Serine/threonine-protein kinase N2 (Homo sapiens, UniProt Q16513); assay: Selectivity interaction (KinomeScan (DiscoverX)) EUB0001079a PKN2; details: at 1 µM
# [4] = target: D(3) dopamine receptor (Homo sapiens, UniProt P35462); assay: Selectivity interaction (Dopamine D3 receptor assay, human recombinant ) EUB0000877a DRD3
# [5] = target: Rho-associated protein kinase 2 (Homo sapiens, UniProt O75116); assay: Selectivity interaction (Kinase panel (33PanQinase(R) Activity Assay)) EUB0000877a ROCK2
# [6] = target: Serine/threonine-protein kinase 38 (Homo sapiens) (UniProt Q15208); assay: Selectivity interaction (ActivX KiNativ screen (kinase selectivity in THP-1 cell lysates)) EUB0000639a STK38; assay type: subcellular; details: lysate, at 1 µM
# [7] = target: Serine/threonine-protein kinase PLK1 (Homo sapiens, UniProt P53350); assay: Selectivity interaction (ActivX KiNativ screen (kinase selectivity in THP-1 cell lysates)) EUB0000639a PLK1; assay type: subcellular; details: lysate
# [8] = Selectivity interaction (ActivX KiNativ screen (kinase selectivity in THP-1 cell lysates)) EUB0000639a STLK6; details: Selectivity number of off-targets 0; Selectivity number of targets 283; Source Knowledge https://pubmed.ncbi.nlm.nih.gov/28498658/; at 0.2 µM
# [9] = target: Cyclin-dependent kinase 11B (Homo sapiens) (UniProt P21127); assay: Selectivity interaction (KinomeScan (DiscoverX)) EUB0000595a CDK11B; details: at 10 µM
# [10] = target: Serine/threonine-protein kinase 32A (Homo sapiens) (UniProt Q8WU08); assay: Selectivity interaction (KinomeScan (DiscoverX)) EUB0000092b STK32A; details: at 10 µM
# [11] = target: Tyrosine-protein kinase ABL2 (Homo sapiens, UniProt P42684); assay: Selectivity interaction (KinomeScan (DiscoverX)) EUB0000045b ABL2
# [12] = Selectivity interaction (KinomeScan (DiscoverX)) EUB0000045b CDPK1
# [13] = target: MAP kinase-activated protein kinase 2 (Homo sapiens, UniProt P49137); details: at 10 µM
# [14] = target: Serine/threonine-protein kinase 25 (Homo sapiens) (UniProt O00506); assay: Selectivity interaction (ActivX KiNativ screen (ex vivo kinase selectivity in human PBMCs)) EUB0001619a STK25; assay type: cell-based; details: PBMC, at 1 µM
# [15] = target: T1, Inhibitor of nuclear factor kappa-B kinase subunit epsilon (Homo sapiens) (UniProt Q14164); assay: Selectivity interaction (KinomeScan (DiscoverX)) EUB0000695a IKBKE; details: at 100 nM
# T1 sequence (whole entry): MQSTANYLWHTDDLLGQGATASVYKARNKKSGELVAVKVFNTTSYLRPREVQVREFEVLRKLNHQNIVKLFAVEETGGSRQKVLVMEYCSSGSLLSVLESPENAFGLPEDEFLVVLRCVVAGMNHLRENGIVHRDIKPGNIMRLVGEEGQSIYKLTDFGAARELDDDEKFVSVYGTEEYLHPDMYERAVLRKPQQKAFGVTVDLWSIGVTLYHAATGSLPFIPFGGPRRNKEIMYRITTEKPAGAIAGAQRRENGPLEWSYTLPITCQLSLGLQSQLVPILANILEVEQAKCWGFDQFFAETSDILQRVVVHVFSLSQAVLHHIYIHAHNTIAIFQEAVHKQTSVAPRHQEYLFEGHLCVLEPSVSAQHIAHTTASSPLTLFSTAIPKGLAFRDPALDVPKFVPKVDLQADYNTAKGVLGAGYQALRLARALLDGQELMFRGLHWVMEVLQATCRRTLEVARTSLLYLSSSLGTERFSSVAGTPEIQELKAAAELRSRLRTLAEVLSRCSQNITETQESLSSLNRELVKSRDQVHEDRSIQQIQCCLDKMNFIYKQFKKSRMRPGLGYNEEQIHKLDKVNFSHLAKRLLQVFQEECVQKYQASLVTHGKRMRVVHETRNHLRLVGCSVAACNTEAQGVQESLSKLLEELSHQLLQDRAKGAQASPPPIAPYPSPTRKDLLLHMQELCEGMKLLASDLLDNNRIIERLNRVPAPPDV
# [16] = target: Cyclin-dependent kinase 14 (Homo sapiens) (UniProt O94921); assay: Selectivity interaction (KinomeScan (DiscoverX)) EUB0000607a CDK14; details: at 10 µM
# [17] = target: Receptor tyrosine-protein kinase erbB-2 (Homo sapiens, UniProt P04626); assay: Selectivity interaction (SelectScreen profiling (Invitrogen)) EUB0000607a ERBB2; details: at 2 µM
# [18] = target: Protein kinase C beta type (Homo sapiens, UniProt P05771); assay: Selectivity interaction (SelectScreen profiling (Invitrogen)) EUB0000607a PRKCB; details: at 2 µM
# [19] = target: Dual specificity mitogen-activated protein kinase kinase 2 (Homo sapiens) (UniProt P36507); assay: Selectivity interaction (Kinase panel (Z-LYTE Assay)) EUB0001632a MAP2K2; details: at 10 µM
# [20] = target: Serine/threonine-protein kinase Chk2 (Homo sapiens) (UniProt O96017); assay: Selectivity interaction (ProQinase) EUB0000171b CHEK2
# Chain of Serine/threonine-protein kinase Chk2 (Homo sapiens) (O96017 whole entry): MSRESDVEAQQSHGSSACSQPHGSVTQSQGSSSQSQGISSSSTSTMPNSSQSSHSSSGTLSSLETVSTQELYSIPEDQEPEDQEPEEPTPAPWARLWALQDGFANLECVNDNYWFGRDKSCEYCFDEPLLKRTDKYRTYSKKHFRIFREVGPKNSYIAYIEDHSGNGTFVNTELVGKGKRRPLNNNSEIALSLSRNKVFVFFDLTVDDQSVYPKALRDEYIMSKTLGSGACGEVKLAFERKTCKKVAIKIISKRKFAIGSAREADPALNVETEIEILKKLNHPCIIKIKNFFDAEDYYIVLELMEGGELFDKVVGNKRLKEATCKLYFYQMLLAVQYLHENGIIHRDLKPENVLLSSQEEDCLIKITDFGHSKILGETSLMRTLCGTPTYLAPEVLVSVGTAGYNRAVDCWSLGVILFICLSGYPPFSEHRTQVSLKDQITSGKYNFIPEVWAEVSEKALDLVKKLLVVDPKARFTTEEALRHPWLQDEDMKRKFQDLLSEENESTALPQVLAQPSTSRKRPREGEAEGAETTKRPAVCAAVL
# Chain of Serine/threonine-protein kinase PLK1 (P53350 whole entry): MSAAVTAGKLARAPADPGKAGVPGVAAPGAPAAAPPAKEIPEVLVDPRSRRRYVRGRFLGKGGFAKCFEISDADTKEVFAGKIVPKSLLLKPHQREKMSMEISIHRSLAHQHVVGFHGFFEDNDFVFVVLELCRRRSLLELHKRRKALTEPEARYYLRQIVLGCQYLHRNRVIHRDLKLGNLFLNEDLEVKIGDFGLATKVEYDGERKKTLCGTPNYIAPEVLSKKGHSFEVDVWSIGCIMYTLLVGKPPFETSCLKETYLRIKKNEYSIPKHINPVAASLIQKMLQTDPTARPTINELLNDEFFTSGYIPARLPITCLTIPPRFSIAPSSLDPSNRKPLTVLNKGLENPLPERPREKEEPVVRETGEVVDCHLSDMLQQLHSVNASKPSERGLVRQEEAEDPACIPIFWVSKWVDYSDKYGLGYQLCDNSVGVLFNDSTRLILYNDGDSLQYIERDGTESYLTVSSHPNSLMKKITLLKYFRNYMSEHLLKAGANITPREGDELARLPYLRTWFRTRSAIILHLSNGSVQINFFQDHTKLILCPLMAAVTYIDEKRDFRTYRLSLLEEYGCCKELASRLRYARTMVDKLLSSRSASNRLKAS
# Chain of Tyrosine-protein kinase ABL2 (P42684 whole entry): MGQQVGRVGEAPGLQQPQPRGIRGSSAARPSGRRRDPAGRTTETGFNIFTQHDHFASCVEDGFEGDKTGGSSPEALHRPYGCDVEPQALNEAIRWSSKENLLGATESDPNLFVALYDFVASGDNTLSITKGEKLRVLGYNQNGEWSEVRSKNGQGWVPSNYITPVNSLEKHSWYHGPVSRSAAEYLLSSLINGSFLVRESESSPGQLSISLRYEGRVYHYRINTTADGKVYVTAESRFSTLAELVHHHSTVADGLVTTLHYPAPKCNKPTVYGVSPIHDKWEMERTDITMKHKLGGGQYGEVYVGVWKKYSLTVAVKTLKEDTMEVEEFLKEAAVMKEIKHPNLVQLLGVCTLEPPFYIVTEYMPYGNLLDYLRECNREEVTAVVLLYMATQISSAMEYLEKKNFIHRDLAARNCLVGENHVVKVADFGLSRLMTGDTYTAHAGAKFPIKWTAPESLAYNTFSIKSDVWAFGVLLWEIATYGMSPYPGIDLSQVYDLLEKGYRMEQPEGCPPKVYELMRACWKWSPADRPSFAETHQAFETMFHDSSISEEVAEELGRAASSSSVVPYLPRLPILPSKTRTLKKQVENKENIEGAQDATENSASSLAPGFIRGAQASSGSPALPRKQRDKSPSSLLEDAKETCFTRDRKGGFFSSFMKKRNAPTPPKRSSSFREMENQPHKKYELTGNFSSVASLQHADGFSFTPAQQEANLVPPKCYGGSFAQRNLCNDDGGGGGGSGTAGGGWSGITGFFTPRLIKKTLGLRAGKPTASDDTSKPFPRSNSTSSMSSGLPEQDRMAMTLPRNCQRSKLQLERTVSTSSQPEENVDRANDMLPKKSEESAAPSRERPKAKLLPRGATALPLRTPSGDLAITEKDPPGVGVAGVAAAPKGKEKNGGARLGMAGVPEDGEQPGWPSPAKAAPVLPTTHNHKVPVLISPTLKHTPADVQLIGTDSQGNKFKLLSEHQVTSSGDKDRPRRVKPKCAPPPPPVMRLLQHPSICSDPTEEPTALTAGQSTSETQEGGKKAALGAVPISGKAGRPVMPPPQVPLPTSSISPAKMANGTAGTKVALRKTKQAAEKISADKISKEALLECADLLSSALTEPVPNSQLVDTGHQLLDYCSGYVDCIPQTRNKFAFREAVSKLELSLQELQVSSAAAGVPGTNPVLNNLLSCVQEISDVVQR
# Chain of Serine/threonine-protein kinase 32A (Homo sapiens) (Q8WU08 whole entry): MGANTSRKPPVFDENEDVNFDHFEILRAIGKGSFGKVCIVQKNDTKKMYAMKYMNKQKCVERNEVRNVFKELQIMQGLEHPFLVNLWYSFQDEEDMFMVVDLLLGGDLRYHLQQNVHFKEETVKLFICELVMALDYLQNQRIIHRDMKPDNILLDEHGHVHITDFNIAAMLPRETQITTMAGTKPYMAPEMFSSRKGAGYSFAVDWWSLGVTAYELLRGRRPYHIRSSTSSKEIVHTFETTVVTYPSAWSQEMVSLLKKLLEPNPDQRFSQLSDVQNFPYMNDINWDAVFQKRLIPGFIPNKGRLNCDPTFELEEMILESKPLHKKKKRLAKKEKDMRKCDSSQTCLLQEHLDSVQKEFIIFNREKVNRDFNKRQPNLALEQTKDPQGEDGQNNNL
# Chain of Protein kinase C beta type (P05771 2-671 limits assumed): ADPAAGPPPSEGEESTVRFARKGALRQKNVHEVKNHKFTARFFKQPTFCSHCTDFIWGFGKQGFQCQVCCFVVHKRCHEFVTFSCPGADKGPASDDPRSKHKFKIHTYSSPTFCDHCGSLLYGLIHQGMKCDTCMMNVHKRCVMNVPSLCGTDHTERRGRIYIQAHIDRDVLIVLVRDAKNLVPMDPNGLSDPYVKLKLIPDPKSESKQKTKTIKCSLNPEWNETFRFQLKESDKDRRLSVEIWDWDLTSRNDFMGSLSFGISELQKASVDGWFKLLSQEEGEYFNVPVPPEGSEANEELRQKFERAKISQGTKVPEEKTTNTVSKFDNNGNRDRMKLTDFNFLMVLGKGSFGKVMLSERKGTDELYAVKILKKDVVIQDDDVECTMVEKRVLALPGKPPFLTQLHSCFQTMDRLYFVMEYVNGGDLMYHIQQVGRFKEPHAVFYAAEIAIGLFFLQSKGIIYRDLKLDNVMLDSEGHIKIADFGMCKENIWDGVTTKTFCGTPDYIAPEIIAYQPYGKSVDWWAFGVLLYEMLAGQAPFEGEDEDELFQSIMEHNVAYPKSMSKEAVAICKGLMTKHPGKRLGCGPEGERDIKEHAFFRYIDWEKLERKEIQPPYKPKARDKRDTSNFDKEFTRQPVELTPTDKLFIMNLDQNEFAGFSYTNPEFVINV
# Chain of Rho-associated protein kinase 2 (O75116 whole entry): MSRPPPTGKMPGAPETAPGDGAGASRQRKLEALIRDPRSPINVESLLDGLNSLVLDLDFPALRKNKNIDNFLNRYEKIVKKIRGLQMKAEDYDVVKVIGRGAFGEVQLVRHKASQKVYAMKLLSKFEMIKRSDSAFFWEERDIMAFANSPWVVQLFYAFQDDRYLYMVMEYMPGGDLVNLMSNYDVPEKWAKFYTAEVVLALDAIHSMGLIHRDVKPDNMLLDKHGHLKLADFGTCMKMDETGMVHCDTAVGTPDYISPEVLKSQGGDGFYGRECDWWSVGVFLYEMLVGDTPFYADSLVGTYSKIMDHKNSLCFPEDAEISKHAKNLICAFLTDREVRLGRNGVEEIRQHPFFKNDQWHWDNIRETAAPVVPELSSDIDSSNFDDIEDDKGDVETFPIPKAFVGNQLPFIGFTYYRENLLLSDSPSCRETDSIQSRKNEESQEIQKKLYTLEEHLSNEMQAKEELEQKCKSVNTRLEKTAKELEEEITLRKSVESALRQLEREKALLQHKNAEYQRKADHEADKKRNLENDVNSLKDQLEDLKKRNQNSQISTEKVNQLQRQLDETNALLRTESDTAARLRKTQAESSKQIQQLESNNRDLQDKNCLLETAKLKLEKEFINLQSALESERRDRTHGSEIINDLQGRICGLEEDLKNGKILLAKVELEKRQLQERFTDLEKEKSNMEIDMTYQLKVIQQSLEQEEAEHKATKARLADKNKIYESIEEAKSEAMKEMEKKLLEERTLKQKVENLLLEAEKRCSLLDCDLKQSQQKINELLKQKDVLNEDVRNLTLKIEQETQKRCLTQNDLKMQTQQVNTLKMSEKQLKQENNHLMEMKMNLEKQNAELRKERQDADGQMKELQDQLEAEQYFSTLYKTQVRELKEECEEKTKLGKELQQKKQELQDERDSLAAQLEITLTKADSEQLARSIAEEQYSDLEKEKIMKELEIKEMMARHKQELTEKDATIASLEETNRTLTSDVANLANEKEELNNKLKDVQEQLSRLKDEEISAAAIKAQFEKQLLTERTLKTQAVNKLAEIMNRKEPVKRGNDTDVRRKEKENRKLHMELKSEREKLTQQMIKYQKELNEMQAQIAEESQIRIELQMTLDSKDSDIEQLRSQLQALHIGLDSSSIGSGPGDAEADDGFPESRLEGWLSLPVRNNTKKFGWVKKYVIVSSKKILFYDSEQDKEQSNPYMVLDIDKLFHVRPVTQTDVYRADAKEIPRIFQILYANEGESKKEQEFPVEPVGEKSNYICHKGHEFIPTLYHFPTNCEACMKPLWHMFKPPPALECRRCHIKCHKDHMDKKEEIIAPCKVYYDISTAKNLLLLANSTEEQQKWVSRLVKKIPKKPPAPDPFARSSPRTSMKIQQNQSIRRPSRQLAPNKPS
smiles,measurement,setting,value
COc1cc(Nc2nc(C)cc(-c3cnn4nc(OC)ccc34)n2)cc(C(F)(F)F)c1,% of control,[1],86%
O=C(NOC[C@H](O)CO)c1ccc(F)c(F)c1Nc1ccc(I)cc1F,% of control,[2],100%
Nc1cnc(N2CCc3cc(S(=O)(=O)Nc4c(F)cc(Cl)cc4F)cc(N4CCCC4=O)c32)nc1 [TP-020n],% of control,[3],100%
CCC(=O)N1CC[C@H](Nc2ncnc3c2CN(c2cnc(OC)c(C(F)(F)F)c2)CC3)C1 [LENIOLISIB],pIC50,[4],< 4.52
same,pIC50,[5],< 5.00
CC[C@@H]1[C@H](F)C(=O)N[C@@H]1COc1nccc2cc(C(N)=O)c(OC)cc12 [ZIMLOVISERTIB],% of inhibition,[6],65.8%
same,% of inhibition,[7]; at 0.01 µM,7.9%
same,% of inhibition,[7]; at 0.04 µM,2%
same,% of inhibition,[7]; at 0.2 µM,-17.6%
same,% of inhibition,[7]; at 1 µM,-0.9%
same,% of inhibition,[7]; at 5 µM,-0.9%
same,% of inhibition,[8],7.4%
COCC(=O)NC/C=C/c1ccc2ncnc(Nc3ccc(Oc4ccc(C)nc4)c(C)c3)c2c1 [CP-724714],% of control,[9],100%
CCC(=O)N1CCN(c2ccc(-n3c(=O)ccc4cnc5ccc(-c6cnc7ccccc7c6)cc5c43)cc2C(F)(F)F)CC1,% of control,[10],100%
C=CC(=O)Nc1cc(-n2c(=O)ccc3cnc4ccc(-c5ccc(NS(C)(=O)=O)cc5)cc4c32)ccc1C,% of control,[11]; at 1 µM,100%
same,% of control,[11]; at 10 µM,100%
same,% of control,[12]; at 1 µM,100%
same,% of control,[12]; at 10 µM,62%
Cc1cc([C@@H](C)Nc2ccccc2C(=O)O)c2nc(N3CCOCC3)cc(=O)n2c1 [AZD-6482],% of control,[13],66%
N#Cc1cccc(-c2c[nH]c3ncnc(N4CCOCC4)c23)c1,% of inhibition,[14],65%
Cc1cc(F)c(C(=O)Nc2cccc(-c3nncn3C(C)C)n2)cc1-n1cnc(C2CC2)c1,% of control,[15],100%
CNC(=O)Nc1ccc(-c2nc(N3CC4CCC(C3)O4)c3cnn(C4CCC5(CC4)OCCO5)c3n2)cc1,% of control,[16],94%
same,% of inhibition,[17],0%
same,% of inhibition,[18],11%
Cn1cc(-n2cnc3c(NCc4nc5cc(Cl)c(Cl)cc5[nH]4)nc(N4CCOCC4)nc32)cn1,% of control,[19],3.34%
C=CC(=O)Nc1cccc(C(=O)Nc2ccc(Nc3cc(-c4[nH]c(SC)nc4C)ccn3)cc2)c1,% of control,[20]; at 1 µM,70%
same,% of control,[20]; at 5 µM,36%

# Source: ChEMBL document CHEMBL5465560, “Selectivity Literature for EUbOPEN Chemogenomic Library” (2024)
